Reference: BindingDB's records for patent US11547697 (Millennium Pharmaceuticals, 2023)

How the values were obtained:
Experiment in all cases: Inhibition Assay of PI3K
[1] = biological target: Phosphatidylinositol 4,5-bisphosphate 3-kinase catalytic subunit beta isoform (Homo sapiens, UniProt P42338)
Experimental: (§1) An exemplary system is PI 3-Kinase (human) HTRF Assay from Upstate. […] Briefly, the assay is a time resolved FRET assay that indirectly measures PIP3 product formed by the activity of a PI3-K. The kinase reaction is performed in a microtitre plate (e.g., a 384 well microtitre plate). The total reaction volume is approximately 20 ul per well. In the first step, each well receives 2 ul of test compound in 20% dimethylsulphoxide resulting in a 2% DMSO final concentration. Next, approximately 14.5 ul of a kinase/PIP2 mixture (diluted in 1× reaction buffer) is added per well for a final concentration of 0.25-0.3 ug/ml kinase and 10 μM PIP2. The plate is sealed and incubated for 15 minutes at room temperature. To start the reaction, 3.5 ul of ATP (diluted in 1× reaction buffer) is added per well for a final concentration of 10 μM ATP. The plate is sealed and incubated for 1 hour at room temperature. The reaction is stopped by adding 5 ul of Stop Solution per well and then 5 ul of Detection Mix is added per well. The plate is sealed, incubated for 1 hour at room temperature, and then read on an appropriate plate reader.

[2] = biological target: T1, Phosphatidylinositol 4,5-bisphosphate 3-kinase catalytic subunit delta isoform (Homo sapiens, UniProt O00329)
T1 sequence (O00329 whole entry): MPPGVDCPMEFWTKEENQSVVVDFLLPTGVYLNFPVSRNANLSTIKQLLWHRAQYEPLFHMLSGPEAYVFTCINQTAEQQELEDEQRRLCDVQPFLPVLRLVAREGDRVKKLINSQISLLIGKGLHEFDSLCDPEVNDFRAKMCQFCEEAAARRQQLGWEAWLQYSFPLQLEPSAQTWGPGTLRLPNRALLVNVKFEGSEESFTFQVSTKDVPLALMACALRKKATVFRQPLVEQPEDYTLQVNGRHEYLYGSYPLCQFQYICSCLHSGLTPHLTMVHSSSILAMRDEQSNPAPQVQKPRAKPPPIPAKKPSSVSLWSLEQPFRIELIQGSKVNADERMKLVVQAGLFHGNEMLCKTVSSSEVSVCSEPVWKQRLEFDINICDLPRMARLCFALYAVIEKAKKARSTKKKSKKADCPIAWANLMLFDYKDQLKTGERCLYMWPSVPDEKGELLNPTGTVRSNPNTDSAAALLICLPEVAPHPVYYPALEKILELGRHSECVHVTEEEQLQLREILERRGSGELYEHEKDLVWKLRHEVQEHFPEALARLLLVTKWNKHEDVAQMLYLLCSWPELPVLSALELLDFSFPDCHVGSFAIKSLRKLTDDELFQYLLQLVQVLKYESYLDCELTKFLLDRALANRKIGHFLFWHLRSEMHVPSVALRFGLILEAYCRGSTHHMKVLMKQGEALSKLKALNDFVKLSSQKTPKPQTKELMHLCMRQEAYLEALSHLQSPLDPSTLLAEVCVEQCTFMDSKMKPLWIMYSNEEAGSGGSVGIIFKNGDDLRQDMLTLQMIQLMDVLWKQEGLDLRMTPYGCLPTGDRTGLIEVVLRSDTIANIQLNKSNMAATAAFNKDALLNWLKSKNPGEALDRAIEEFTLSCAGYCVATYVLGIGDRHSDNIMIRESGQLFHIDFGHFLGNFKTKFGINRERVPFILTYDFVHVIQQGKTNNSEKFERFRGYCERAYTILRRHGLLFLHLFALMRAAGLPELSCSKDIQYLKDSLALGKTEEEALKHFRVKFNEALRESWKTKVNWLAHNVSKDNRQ
Experimental: as §1

[3] = biological target: Phosphatidylinositol 4,5-bisphosphate 3-kinase catalytic subunit gamma isoform (Homo sapiens, UniProt P48736)
Sequence of Phosphatidylinositol 4,5-bisphosphate 3-kinase catalytic subunit gamma isoform (P48736 whole entry, canonical isoform): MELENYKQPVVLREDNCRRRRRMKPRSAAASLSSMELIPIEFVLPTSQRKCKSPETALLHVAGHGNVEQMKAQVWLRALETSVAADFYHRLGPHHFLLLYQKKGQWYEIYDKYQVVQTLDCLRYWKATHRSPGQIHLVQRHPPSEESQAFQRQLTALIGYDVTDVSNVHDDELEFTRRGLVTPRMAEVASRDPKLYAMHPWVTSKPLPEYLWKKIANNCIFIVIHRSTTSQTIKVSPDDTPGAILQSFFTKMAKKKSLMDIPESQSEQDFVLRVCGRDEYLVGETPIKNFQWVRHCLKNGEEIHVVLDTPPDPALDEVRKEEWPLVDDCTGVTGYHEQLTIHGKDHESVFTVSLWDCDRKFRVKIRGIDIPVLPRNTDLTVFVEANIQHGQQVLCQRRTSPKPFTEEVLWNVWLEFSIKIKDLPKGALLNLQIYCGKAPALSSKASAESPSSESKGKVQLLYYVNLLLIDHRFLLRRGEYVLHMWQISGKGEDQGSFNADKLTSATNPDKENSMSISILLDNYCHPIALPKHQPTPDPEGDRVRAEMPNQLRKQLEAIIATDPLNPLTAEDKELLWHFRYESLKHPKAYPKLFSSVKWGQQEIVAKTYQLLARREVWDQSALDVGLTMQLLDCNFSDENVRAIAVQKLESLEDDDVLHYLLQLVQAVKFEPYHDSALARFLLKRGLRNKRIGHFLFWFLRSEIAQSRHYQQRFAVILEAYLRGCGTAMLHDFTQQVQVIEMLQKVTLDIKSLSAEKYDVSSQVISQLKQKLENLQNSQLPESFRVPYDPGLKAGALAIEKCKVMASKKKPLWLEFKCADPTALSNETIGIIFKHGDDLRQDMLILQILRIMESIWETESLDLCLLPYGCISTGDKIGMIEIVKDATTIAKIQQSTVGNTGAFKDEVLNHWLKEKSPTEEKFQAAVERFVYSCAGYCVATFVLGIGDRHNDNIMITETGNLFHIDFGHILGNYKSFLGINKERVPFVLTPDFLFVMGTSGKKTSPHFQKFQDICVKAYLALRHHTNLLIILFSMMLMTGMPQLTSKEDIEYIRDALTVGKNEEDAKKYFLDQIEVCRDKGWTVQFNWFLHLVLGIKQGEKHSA
Experimental: as §1

[4] = biological target: Phosphatidylinositol 4,5-bisphosphate 3-kinase catalytic subunit alpha isoform (Homo sapiens, UniProt P42336)
Sequence of Phosphatidylinositol 4,5-bisphosphate 3-kinase catalytic subunit alpha isoform (P42336 whole entry, canonical isoform): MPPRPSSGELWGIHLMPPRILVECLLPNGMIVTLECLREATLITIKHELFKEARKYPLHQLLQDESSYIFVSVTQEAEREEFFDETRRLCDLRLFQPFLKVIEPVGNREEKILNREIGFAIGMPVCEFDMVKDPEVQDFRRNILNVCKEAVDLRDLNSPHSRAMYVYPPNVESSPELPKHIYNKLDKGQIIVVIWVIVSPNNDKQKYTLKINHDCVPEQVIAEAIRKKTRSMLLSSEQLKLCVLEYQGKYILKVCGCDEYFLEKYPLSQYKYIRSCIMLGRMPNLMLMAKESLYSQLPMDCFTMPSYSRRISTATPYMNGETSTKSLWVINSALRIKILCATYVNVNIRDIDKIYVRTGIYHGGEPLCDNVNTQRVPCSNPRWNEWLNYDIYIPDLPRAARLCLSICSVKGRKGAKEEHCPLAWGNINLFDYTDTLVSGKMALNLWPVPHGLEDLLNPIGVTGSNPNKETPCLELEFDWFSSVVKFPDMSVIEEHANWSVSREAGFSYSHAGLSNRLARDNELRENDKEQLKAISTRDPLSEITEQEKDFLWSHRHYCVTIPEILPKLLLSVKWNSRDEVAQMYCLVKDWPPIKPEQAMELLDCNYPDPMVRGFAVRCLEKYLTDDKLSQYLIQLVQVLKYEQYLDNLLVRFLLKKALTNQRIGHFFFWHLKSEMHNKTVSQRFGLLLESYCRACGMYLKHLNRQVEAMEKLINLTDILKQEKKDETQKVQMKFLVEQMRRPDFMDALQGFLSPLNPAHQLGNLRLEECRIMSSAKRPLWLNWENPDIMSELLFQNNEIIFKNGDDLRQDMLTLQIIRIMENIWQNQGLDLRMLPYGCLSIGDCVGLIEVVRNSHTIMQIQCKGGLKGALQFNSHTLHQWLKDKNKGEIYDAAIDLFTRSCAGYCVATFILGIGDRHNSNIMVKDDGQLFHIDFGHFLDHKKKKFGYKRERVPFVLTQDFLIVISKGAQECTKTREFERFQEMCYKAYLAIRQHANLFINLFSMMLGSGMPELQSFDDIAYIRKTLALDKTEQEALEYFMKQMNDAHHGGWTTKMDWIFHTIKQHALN
Experimental: as §1

Measured: IC50

Sequence of Phosphatidylinositol 4,5-bisphosphate 3-kinase catalytic subunit beta isoform (P42338 whole entry, canonical isoform): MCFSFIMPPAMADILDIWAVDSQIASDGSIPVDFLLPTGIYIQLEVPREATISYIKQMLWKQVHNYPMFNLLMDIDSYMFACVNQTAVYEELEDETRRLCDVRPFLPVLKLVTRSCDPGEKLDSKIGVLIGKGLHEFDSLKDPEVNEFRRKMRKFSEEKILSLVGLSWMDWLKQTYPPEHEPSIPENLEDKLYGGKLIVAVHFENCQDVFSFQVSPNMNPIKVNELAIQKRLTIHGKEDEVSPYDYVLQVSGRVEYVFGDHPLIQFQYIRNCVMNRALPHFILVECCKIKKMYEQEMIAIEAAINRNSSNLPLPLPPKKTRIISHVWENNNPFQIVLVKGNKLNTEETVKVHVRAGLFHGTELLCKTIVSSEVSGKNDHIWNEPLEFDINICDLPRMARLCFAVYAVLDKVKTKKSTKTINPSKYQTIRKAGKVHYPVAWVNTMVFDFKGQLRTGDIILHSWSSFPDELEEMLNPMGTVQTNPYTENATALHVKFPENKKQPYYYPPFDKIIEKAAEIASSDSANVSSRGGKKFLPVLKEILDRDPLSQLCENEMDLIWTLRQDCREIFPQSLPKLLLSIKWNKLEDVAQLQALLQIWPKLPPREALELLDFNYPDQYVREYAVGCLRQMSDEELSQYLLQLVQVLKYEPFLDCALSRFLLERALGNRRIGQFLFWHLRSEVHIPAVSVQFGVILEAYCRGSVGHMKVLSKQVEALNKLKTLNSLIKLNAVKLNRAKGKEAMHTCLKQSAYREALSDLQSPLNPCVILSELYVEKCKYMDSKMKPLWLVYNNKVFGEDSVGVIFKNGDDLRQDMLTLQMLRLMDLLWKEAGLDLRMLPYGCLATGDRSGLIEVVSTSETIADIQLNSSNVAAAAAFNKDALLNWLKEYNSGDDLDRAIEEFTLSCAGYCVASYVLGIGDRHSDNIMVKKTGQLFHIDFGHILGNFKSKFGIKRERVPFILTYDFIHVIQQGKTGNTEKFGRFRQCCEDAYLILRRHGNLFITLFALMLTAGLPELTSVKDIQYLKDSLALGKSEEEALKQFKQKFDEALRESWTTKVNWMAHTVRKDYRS

Nc1nsc2ccc(-c3ccc4nccc(-c5ccncc5)c4c3)cc12 [US11547697, Compound 12]
> 10 µM: all assays above

CC(=O)Nc1cn2cc(-c3ccc4nccc(-c5ccncc5)c4c3)ccc2n1 [US11547697, Compound 19]
> 10 µM: all assays above

Nc1nc2cc(-c3cnc4ncc(-c5ccncc5)n4c3)ccc2o1 [US11547697, Compound 61]
> 10 µM: all assays above

Cc1nc2ccc(-c3ccc4oc(N)nc4c3)cn2c1C(=O)N1CCN(C)CC1 [US11547697, Compound 91]
> 10 µM: all assays above

Cc1nc2ccc(-c3ccc4oc(N)nc4c3)cn2c1C(=O)N1CCOCC1 [US11547697, Compound 92]
> 10 µM: all assays above

Nc1nc2cc(-c3cn4c(C(=O)N5CCOCC5)cnc4cn3)ccc2o1 [US11547697, Compound 122]
> 10 µM: all assays above

CC(=O)Nc1nc2ccc(-c3nc(N4CCOCC4)c4sc(CN5CCN(S(C)(=O)=O)CC5)cc4n3)cc2s1 [US11547697, Compound 130]
> 10 µM: all assays above

Nc1ncc(-c2ccc3oc(N)nc3c2)cn1 [US11547697, Compound 233]
> 10 µM: [1] | [2] | [4]

Nc1nc2cc(-c3cccc4[nH]nc(N)c34)ccc2o1 [US11547697, Compound 236]
> 10 µM: [1] | [3] | [4]

CC(=O)Nc1nc2cc(-c3ccc4oc(N)nc4c3)ccc2o1 [US11547697, Compound 244]
> 10 µM: all assays above

Nc1nc2ccc(-c3ccc4nc(N)oc4c3)cc2o1 [US11547697, Compound 246]
> 10 µM: all assays above

Nc1cn2cc(-c3ccc4nc(N)oc4c3)ccc2n1 [US11547697, Compound 247]
> 10 µM: [2] | [4]

CC(=O)Nc1nc2cc(-c3ccc4oc(N)nc4c3)ccc2s1 [US11547697, Compound 250]
> 10 µM: [1] | [2] | [4]

Nc1nc2cc(-c3ccc4nnc(C(=O)N5CCOCC5)n4c3)ccc2o1 [US11547697, Compound 282]
> 10 µM: all assays above

C[C@H]1CN(c2cnc3ccc(-c4cccc5nc(N)oc45)cc3n2)CCN1 [US11547697, Compound 310]
> 10 µM: all assays above

Nc1nc2cc(-c3ccc4ncn(C(=O)N5CCOCC5)c4c3)ccc2o1 [US11547697, Compound 317]
> 10 µM: all assays above

C[C@H]1CN(c2cnc3ccc(-c4cccc5c(N)nsc45)cc3n2)CCN1 [US11547697, Compound 321]
> 10 µM: all assays above

C[C@H]1CN(c2cnc3cccc(-c4ccc5oc(N)nc5c4)c3n2)CCN1 [US11547697, Compound 342]
> 10 µM: all assays above

C[C@H]1CN(c2cnc3cccc(-c4ccc5nc(N)oc5c4)c3n2)CCN1 [US11547697, Compound 343]
> 10 µM: [2] | [3] | [4]

Cc1c(-c2ccc3oc(N)nc3c2)ccc2ncc(C(=O)N3CCOCC3)n12 [US11547697, Compound 349]
> 10 µM: all assays above

Cc1cc2oc(N)nc2cc1-c1ccc2ncc(C(=O)N3CCOCC3)n2c1 [US11547697, Compound 352]
> 10 µM: all assays above

Cc1c(-c2ccc3ncc(N4CC(N5CCOCC5)C4)nc3c2)ccc2oc(N)nc12 [US11547697, Compound 362]
> 10 µM: all assays above

C[C@H]1CN(c2cnc3ccc(-c4cccc5c(N)noc45)cc3n2)CCN1 [US11547697, Compound 363]
> 10 µM: all assays above

Cc1c(-c2ccc3ncc(C(=O)N4CCOCC4)n3c2)ccc2oc(N)nc12 [US11547697, Compound 369]
> 10 µM: all assays above

CC(C)N1CCN(c2cnc3ccc(-c4ccc5oc(N)nc5c4)cc3n2)C(=O)C1 [US11547697, Compound 392]
> 10 µM: all assays above

C[C@H]1CN(c2cnc3scc(-c4ccc5oc(N)nc5c4)c3c2)CCN1 [US11547697, Compound 399]
> 10 µM: all assays above

Nc1nc2cc(-c3nc4cc(-c5cccnc5)cnc4s3)ccc2o1 [US11547697, Compound 402]
> 10 µM: all assays above

Nc1nc2cc(-c3ccc4nc(N)c(N5CC(N6CCOCC6)C5)nc4c3)ccc2o1 [US11547697, Compound 404]
> 10 µM: all assays above

CS(=O)(=O)Nc1nc2cc(-c3ccc4ncc(C(=O)N5CCOCC5)n4c3)ccc2o1 [US11547697, Compound 405]
> 10 µM: all assays above

O=C(c1cnc2ccc(-c3ccc4oc(Nc5ccccc5)nc4c3)cn12)N1CCOCC1 [US11547697, Compound 407]
> 10 µM: [2] | [3] | [4]

CN1CCC(Nc2nc3cc(-c4ccc5ncc(C(=O)N6CCOCC6)n5c4)ccc3o2)CC1 [US11547697, Compound 408]
> 10 µM: all assays above

CC(=O)n1nc(N)c2ccc(-c3ccc4oc(N)nc4c3)cc21 [US11547697, Compound 426]
> 10 µM: all assays above

Nc1nc2cc(-c3ccc4[nH]nc(N)c4c3)ccc2o1 [US11547697, Compound 427]
> 10 µM: all assays above

COc1ccc(CNc2n[nH]c3cc(-c4ccc5oc(N)nc5c4)ccc23)cc1 [US11547697, Compound 429]
> 10 µM: all assays above

O=C(c1cnc2ccc(-c3cncc(S(=O)(=O)Nc4ccccc4)c3)cn12)N1CCOCC1 [US11547697, Compound 447]
> 10 µM: [1] | [2] | [3]

CNS(=O)(=O)c1cncc(-c2ccc3ncc(C(=O)N4CCOCC4)n3c2)c1 [US11547697, Compound 450]
> 10 µM: [1] | [2] | [3]

CS(=O)(=O)Nc1cc(-c2ccc3ncc(C(=O)N4CCOCC4)n3c2)ccc1Cl [US11547697, Compound 460]
> 10 µM: [1] | [2] | [3]

Nc1nsc2c(-c3ccc4ncc(C(=O)N5CCOCC5)n4c3)cccc12 [US11547697, Compound 474]
> 10 µM: [1] | [2] | [3]

Nc1nc2cccc(-c3ccc4ncc(C(=O)N5CCOCC5)n4c3)c2s1 [US11547697, Compound 485]
> 10 µM: [1] | [2] | [3]

Nc1nsc2cc(-c3ccc4ncc(C(=O)N5CCOCC5)n4c3)ccc12 [US11547697, Compound 489]
> 10 µM: [1] | [2] | [3]

CC1(C)COCCN1C(=O)c1cnc2ccc(-c3ccc4oc(N)nc4c3)cn12 [US11547697, Compound 514]
> 10 µM: [1] | [2] | [3]

O=C(c1cnc2ccc(-c3cnc(Cl)c4[nH]ncc34)cn12)N1CCOCC1 [US11547697, Compound 516]
> 10 µM: [1] | [2] | [3]
